Reference: the supplement of paper PMC11451515

System: NOMO1
Experiment: cell viability relative to DMSO control; higher = less cytotoxic
Settings: 48 h
In short: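 In 1536-well plates, 5 μl of leukemia cells were seeded per well: 500 cells/well for NOMO1 or SEM and 1000 cells/well for P12-Ichikawa. Each line had first been adapted for at least four passages in each medium. Library compounds in DMSO were pin-dosed at 11 threefold concentrations between 47 μM and 0.79 nM, and CellTiter-Glo One luminescence was read after 48 h at 37°C. Viability is a per-plate percentage relative to DMSO wells, with cell-free wells as background.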

[1] = RPMI 5 mM glucose + 10% FBS, 0.000781 µM
[2] = RPMI 5 mM glucose + 10% FBS, 0.00234 µM
[3] = RPMI 5 mM glucose + 10% FBS, 0.00702 µM
[4] = RPMI 5 mM glucose + 10% FBS, 0.0211 µM
[5] = RPMI 5 mM glucose + 10% FBS, 0.0632 µM
[6] = RPMI 5 mM glucose + 10% FBS, 0.19 µM
[7] = RPMI 5 mM glucose + 10% FBS, 0.569 µM
[8] = RPMI 5 mM glucose + 10% FBS, 1.71 µM
[9] = RPMI 5 mM glucose + 10% FBS, 5.12 µM
[10] = RPMI 5 mM glucose + 10% FBS, 15.4 µM
[11] = RPMI 5 mM glucose + 10% FBS, 46.1 µM
[12] = RPMI 5 mM glucose + 10% dialyzed FBS, 0.000781 µM
[13] = RPMI 5 mM glucose + 10% dialyzed FBS, 0.00234 µM
[14] = RPMI 5 mM glucose + 10% dialyzed FBS, 0.00702 µM
[15] = RPMI 5 mM glucose + 10% dialyzed FBS, 0.0211 µM
[16] = RPMI 5 mM glucose + 10% dialyzed FBS, 0.0632 µM
[17] = RPMI 5 mM glucose + 10% dialyzed FBS, 0.19 µM
[18] = RPMI 5 mM glucose + 10% dialyzed FBS, 0.569 µM
[19] = RPMI 5 mM glucose + 10% dialyzed FBS, 1.71 µM
[20] = RPMI 5 mM glucose + 10% dialyzed FBS, 5.12 µM
[21] = RPMI 5 mM glucose + 10% dialyzed FBS, 15.4 µM
[22] = RPMI 5 mM glucose + 10% dialyzed FBS, 46.1 µM
[23] = HPLM + 10% dialyzed FBS, 0.000781 µM
[24] = HPLM + 10% dialyzed FBS, 0.00234 µM
[25] = HPLM + 10% dialyzed FBS, 0.00702 µM
[26] = HPLM + 10% dialyzed FBS, 0.0211 µM
[27] = HPLM + 10% dialyzed FBS, 0.0632 µM
[28] = HPLM + 10% dialyzed FBS, 0.19 µM
[29] = HPLM + 10% dialyzed FBS, 0.569 µM
[30] = HPLM + 10% dialyzed FBS, 1.71 µM
[31] = HPLM + 10% dialyzed FBS, 5.12 µM
[32] = HPLM + 10% dialyzed FBS, 15.4 µM
[33] = HPLM + 10% dialyzed FBS, 46.1 µM

`CCOP(=O)(OCC)C(C)NC(=O)N(CCCl)N=O` (configuration not stated) showed a cell viability [1] of 120%, a cell viability [2] of 115% and a cell viability [3] of 124%. It also gave a cell viability [4] of 134%, a cell viability [5] of 121% and a cell viability [6] of 131%. For the same compound, the cell viability [7] was 126%, the cell viability [8] was 139% and the cell viability [9] was 141%. The cell viability [10] was 163%, the cell viability [11] was 154% and the cell viability [12] was 112%. It also gave a cell viability [13] of 116%, a cell viability [14] of 138% and a cell viability [15] of 141%. It also gave a cell viability [16] of 137%, a cell viability [17] of 137% and a cell viability [18] of 134%. It also gave a cell viability [19] of 136%, a cell viability [20] of 133% and a cell viability [21] of 140%. The cell viability [22] was 128%.
Work on `CN[C@@H](C)C(=O)N[C@H]1CCCC[C@H]2CC[C@@H](C(=O)N[C@@H](c3ccccc3)c3cn(CCCCc4ccc(CCCCn5cc([C@@H](NC(=O)[C@@H]6CC[C@@H]7CCCC[C@H](NC(=O)[C@H](C)NC)C(=O)N76)c6ccccc6)nn5)cc4)nn3)N2C1=O` yielded a cell viability [23] of 82.8%, a cell viability [24] of 79.3% and a cell viability [25] of 56%. For the same compound, the cell viability [26] was 61%, the cell viability [27] was 42.3% and the cell viability [28] was 54.4%. It also gave a cell viability [29] of 50.6%, a cell viability [30] of 47.9% and a cell viability [31] of 48%. It also gave a cell viability [32] of 27.5%, a cell viability [33] of 33.4% and a cell viability [1] of 85.6%. The cell viability [2] was 82.4%, the cell viability [3] was 80.8% and the cell viability [4] was 87.9%. The cell viability [5] was 48.4%, the cell viability [6] was 61.5% and the cell viability [7] was 74%. For the same compound, the cell viability [8] was 70.8%, the cell viability [9] was 51.8% and the cell viability [10] was 51.2%. For the same compound, the cell viability [11] was 57.1%, the cell viability [12] was 75.9% and the cell viability [13] was 81.6%. It also gave a cell viability [14] of 84.8%, a cell viability [15] of 64.9% and a cell viability [16] of 65.5%. It also gave a cell viability [17] of 72.2%, a cell viability [18] of 53.6% and a cell viability [19] of 52.2%. The cell viability [20] was 42.6%, the cell viability [21] was 54.7% and the cell viability [22] was 34.2%.
In the case of `CC(=O)SCC(Cc1ccccc1)C(=O)NCC(=O)OCc1ccccc1` (configuration not stated), the cell viability [23] is reported as 88.4%, the cell viability [24] is reported as 85.1% and the cell viability [25] is reported as 102%. For the same compound, the cell viability [26] was 104%, the cell viability [27] was 102% and the cell viability [28] was 106%. The cell viability [29] was 107%, the cell viability [30] was 88.9% and the cell viability [31] was 63.9%. The cell viability [32] was 14.7%, the cell viability [33] was 9.71% and the cell viability [1] was 81.7%. The cell viability [2] was 82.6%, the cell viability [3] was 80.3% and the cell viability [4] was 93.4%. It also gave a cell viability [5] of 84.3%, a cell viability [6] of 89.4% and a cell viability [7] of 95.2%. For the same compound, the cell viability [8] was 95%, the cell viability [9] was 72.1% and the cell viability [10] was 15.1%. The cell viability [11] was 10.7%, the cell viability [12] was 78.2% and the cell viability [13] was 74.3%. It also gave a cell viability [14] of 86.7%, a cell viability [15] of 85.6% and a cell viability [16] of 96.9%. For the same compound, the cell viability [17] was 98.4%, the cell viability [18] was 95.6% and the cell viability [19] was 76.8%. For the same compound, the cell viability [20] was 65.6%, the cell viability [21] was 13.4% and the cell viability [22] was 13.2%.
`CN1[C@@H]2CC(O)C[C@H]1[C@@H]1O[C@@H]12` (some centres not stated) showed a cell viability [1] of 111%, a cell viability [2] of 125% and a cell viability [3] of 121%. For the same compound, the cell viability [4] was 121%, the cell viability [5] was 113% and the cell viability [6] was 118%. The cell viability [7] was 103%, the cell viability [8] was 113% and the cell viability [9] was 121%. For the same compound, the cell viability [10] was 111% and the cell viability [11] was 6.78%.
For `COc1ccc([C@@H]2CNC(=O)C2)cc1OC1CCCC1`, the cell viability [23] was 106%, the cell viability [24] was 108% and the cell viability [25] was 108%. It also gave a cell viability [26] of 111%, a cell viability [27] of 117% and a cell viability [28] of 114%. For the same compound, the cell viability [29] was 136%, the cell viability [30] was 114% and the cell viability [31] was 117%. The cell viability [32] was 118%, the cell viability [33] was 116% and the cell viability [1] was 112%. It also gave a cell viability [2] of 111%, a cell viability [3] of 106% and a cell viability [4] of 96.7%. The cell viability [5] was 114%, the cell viability [6] was 107% and the cell viability [7] was 104%. It also gave a cell viability [8] of 112%, a cell viability [9] of 99.7% and a cell viability [10] of 105%. The cell viability [11] was 107%, the cell viability [12] was 92.6% and the cell viability [13] was 101%. It also gave a cell viability [14] of 119%, a cell viability [15] of 105% and a cell viability [16] of 114%. The cell viability [17] was 115%, the cell viability [18] was 105% and the cell viability [19] was 115%. It also gave a cell viability [20] of 112%, a cell viability [21] of 105% and a cell viability [22] of 119%.
For `C[C@@]12OC(=O)[C@@]1(NC(=O)[C@@H]2CCCl)[C@@H](O)[C@H]\3CCC\C=C3`, the cell viability [23] was 109%, the cell viability [24] was 114% and the cell viability [25] was 104%. For the same compound, the cell viability [26] was 104%, the cell viability [27] was 97.9% and the cell viability [28] was 51.4%. For the same compound, the cell viability [29] was 9.1%, the cell viability [30] was 6.95% and the cell viability [31] was 4.84%. For the same compound, the cell viability [32] was 2.62%, the cell viability [33] was 1.53% and the cell viability [1] was 86.2%. It also gave a cell viability [2] of 94.4%, a cell viability [3] of 104% and a cell viability [4] of 103%. It also gave a cell viability [5] of 100%, a cell viability [6] of 66.2% and a cell viability [7] of 11%. The cell viability [8] was 6.39%, the cell viability [9] was 7.27% and the cell viability [10] was 3.01%. For the same compound, the cell viability [11] was 1.15%, the cell viability [12] was 90.2% and the cell viability [13] was 110%. For the same compound, the cell viability [14] was 106%, the cell viability [15] was 96.8% and the cell viability [16] was 102%. The cell viability [17] was 62.7%, the cell viability [18] was 11% and the cell viability [19] was 5.88%. It also gave a cell viability [20] of 4.34%, a cell viability [21] of 2.85% and a cell viability [22] of 1.4%.
`CO[C@@H]1[C@H](N(C)C(=O)c2ccccc2)C[C@H]2O[C@]1(C)n1c3ccccc3c3c4c(c5c6ccccc6n2c5c31)C(=O)NC4` was tested, and the cell viability [23] was 103%, the cell viability [24] was 104% and the cell viability [25] was 128%. It also gave a cell viability [26] of 116%, a cell viability [27] of 153% and a cell viability [28] of 134%. It also gave a cell viability [29] of 135%, a cell viability [30] of 114% and a cell viability [31] of 80%. The cell viability [32] was 54.5%, the cell viability [33] was 49.5% and the cell viability [1] was 96.7%. The cell viability [2] was 116%, the cell viability [3] was 107% and the cell viability [4] was 114%. The cell viability [5] was 121%, the cell viability [6] was 115% and the cell viability [7] was 118%. The cell viability [8] was 105%, the cell viability [9] was 87.1% and the cell viability [10] was 50.9%. It also gave a cell viability [11] of 44.3%, a cell viability [12] of 117% and a cell viability [13] of 113%. It also gave a cell viability [14] of 123%, a cell viability [15] of 111% and a cell viability [16] of 110%. The cell viability [17] was 105%, the cell viability [18] was 114% and the cell viability [19] was 93.2%. It also gave a cell viability [20] of 80.3%, a cell viability [21] of 50.8% and a cell viability [22] of 49.5%.
With `CCN(CC)CCOC1=CC=C(NC2=NC=C3\C=C(/C(=O)N(C)C3=N2)C4=C(Cl)C=CC=C4Cl)C=C1` the cell viability [23] was 116%, the cell viability [24] was 138% and the cell viability [25] was 121%. For the same compound, the cell viability [26] was 115%, the cell viability [27] was 108% and the cell viability [28] was 96.4%. For the same compound, the cell viability [29] was 97.5%, the cell viability [30] was 80.5% and the cell viability [31] was 16.1%. It also gave a cell viability [32] of 10.1% and a cell viability [33] of 2.65%.
With `C[C@@H]1CN(CC(=O)N2CC(C)(C)c3ncc(Cc4ccc(F)cc4)cc32)[C@@H](CN2CCOC[C@H]2C)CN1` the cell viability [23] was 100%, the cell viability [24] was 117% and the cell viability [25] was 145%. It also gave a cell viability [26] of 112%, a cell viability [27] of 129% and a cell viability [28] of 114%. The cell viability [29] was 112%, the cell viability [30] was 103% and the cell viability [31] was 109%. For the same compound, the cell viability [32] was 84%, the cell viability [33] was 46.4% and the cell viability [1] was 96.9%. The cell viability [2] was 120%, the cell viability [3] was 121% and the cell viability [4] was 111%. For the same compound, the cell viability [5] was 117%, the cell viability [6] was 121% and the cell viability [7] was 102%. For the same compound, the cell viability [8] was 109%, the cell viability [9] was 103% and the cell viability [10] was 95.3%. It also gave a cell viability [11] of 91.4%, a cell viability [12] of 95.4% and a cell viability [13] of 119%. It also gave a cell viability [14] of 117%, a cell viability [15] of 119% and a cell viability [16] of 111%. For the same compound, the cell viability [17] was 114%, the cell viability [18] was 111% and the cell viability [19] was 106%. For the same compound, the cell viability [20] was 105%, the cell viability [21] was 98.2% and the cell viability [22] was 69.3%.
